These results are taken from ChEMBL document CHEMBL1201862, “PubChem BioAssay data set” (2004).

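96-well plates; 48 h exposure; 5 concentrations. Endpoints by linear interpolation between flanking doses. Not reached: highest tested concentration assigned. The concentration for 50% growth inhibition is given as GI50.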 Activity calls are given as the source filed them. Cut-off read from the data, not from the text of the source: active = GI50 up to about 1.1 µM and inactive = higher.

Test systems include NCI-H23; SK-MEL-5; Malme-3M; SK-MEL-2; UO-31; TK-10; U-251; NCI-H460; SNB-19; HT-29; NCI-H522; HCC 2998; SF-295; HL-60; SNB-75; HCT-116; SF-539; HOP-62; A498.
Common to all, as to test: NCI-60 cell line screen, 48 h

As to `COc1ccccc1NC(=O)NS(=O)(=O)c1ccccc1`, the GI50 in the assay with NCI-H23, with SK-MEL-5, in the assay with Malme-3M, in the assay on SK-MEL-2, with UO-31 and in the assay on TK-10 was > 100 µM (inactive) in each case. Besides, the GI50 in the assay on U-251 was > 100 µM (inactive); with NCI-H460 it was > 100 µM (inactive); with SNB-19 it was > 100 µM (inactive); with HT-29, > 100 µM (inactive); with NCI-H522 it was 63.7 µM (inactive); with HCC 2998, > 100 µM (inactive). Also, the GI50 with SF-295 is > 100 µM (inactive); in the assay on HL-60, > 100 µM (inactive); with SNB-75 it was > 100 µM (inactive); with HCT-116, > 100 µM (inactive); in the assay on SF-539, > 100 µM (inactive); with HOP-62 it was 69.2 µM (inactive).

Consider `Cc1cc(S(=O)(=O)O)ccc1/N=N/c1c(O)ccc2ccccc12`, for which the GI50 in the assay with NCI-H23, in the assay with SK-MEL-5, with Malme-3M, in the assay on SK-MEL-2, in the assay on UO-31 and in the assay on TK-10 was > 100 µM (inactive) in each case. The GI50 in the assay on U-251 was > 100 µM (inactive); in the assay on SNB-19 it was > 100 µM (inactive); in the assay on HT-29, 82.2 µM (inactive); in the assay with NCI-H522 it was > 100 µM (inactive); in the assay on SF-295, > 100 µM (inactive); in the assay on HL-60, > 100 µM (inactive). The GI50 in the assay with SNB-75, in the assay with HCT-116 and in the assay with HOP-62 was > 100 µM (inactive) each time.

Turning to `O=C(c1ccccc1)c1nc2ccc(Cl)cc2c2c1Cc1ccccc1-2`, the GI50 in the assay with NCI-H23, with SK-MEL-5, with Malme-3M, with SK-MEL-2, with UO-31 and with TK-10 was > 100 µM (inactive) in each case. In addition, the GI50 was > 100 µM (inactive) in the assay with U-251; > 100 µM (inactive) in the assay on SNB-19; > 100 µM (inactive) in the assay on NCI-H522; > 100 µM (inactive) in the assay on HCC 2998; > 100 µM (inactive) in the assay with SF-295; 46.5 µM (inactive) in the assay on SNB-75. Moreover, the GI50 in the assay on HCT-116, with SF-539 and with HOP-62 was > 100 µM (inactive) each time.

Take `O=C(Nc1ccccc1C(=O)NC(=O)c1ccccc1NC(=O)c1ccccc1)c1ccccc1`: the GI50 in the assay with NCI-H23 is 4.57 µM (inactive); in the assay with SK-MEL-5, 2.9 µM (inactive); in the assay on Malme-3M, 3.34 µM (inactive); in the assay with SK-MEL-2, 1.87 µM (inactive); with TK-10, 10.9 µM (inactive); in the assay with A498 it was 15.1 µM (inactive). In addition, the GI50 is 3.49 µM (inactive) in the assay on U-251; 7.71 µM (inactive) in the assay on NCI-H460; 7.36 µM (inactive) in the assay on SNB-19; 2.22 µM (inactive) in the assay with HT-29; 10.8 µM (inactive) in the assay on SF-295; 2.83 µM (inactive) with SNB-75. In addition, the GI50 is 3.45 µM (inactive) in the assay with HCT-116, 5.09 µM (inactive) in the assay with SF-539 and 12.4 µM (inactive) in the assay with HOP-62.

Regarding `CC1=C(C(=O)NCc2ccccc2)C(/C=C/c2ccccc2)C(C(=O)NCc2ccccc2)=C(C)N1`, the GI50 with NCI-H23, in the assay on SK-MEL-5, in the assay with Malme-3M, in the assay with SK-MEL-2, in the assay with UO-31 and in the assay with TK-10 was > 100 µM (inactive) throughout. Moreover, the GI50 with A498, in the assay with NCI-H460, with SNB-19, in the assay on HT-29, in the assay with HCC 2998 and in the assay on SF-295 was > 100 µM (inactive) each time. For the same compound, the GI50 with HL-60 was > 100 µM (inactive); in the assay with SNB-75, 85.9 µM (inactive); with HCT-116, > 100 µM (inactive); in the assay on SF-539, > 100 µM (inactive); in the assay with HOP-62, > 100 µM (inactive).

In the case of `C=C1CC2OC(=O)C(=C)C2C(O)C2C(=C)CCC12` (centres undefined), the GI50 in the assay with NCI-H23 is 12.6 µM (inactive); in the assay on SK-MEL-5, 12.2 µM (inactive); with Malme-3M, 15 µM (inactive); in the assay with SK-MEL-2 it was 15.7 µM (inactive); with UO-31 it was 16.1 µM (inactive); in the assay on TK-10 it was 14.8 µM (inactive). For the same compound, the GI50 in the assay with A498 was 0.31 µM (active); in the assay on U-251, 16.8 µM (inactive); in the assay with NCI-H460 it was 14.7 µM (inactive); in the assay on SNB-19 it was 16.2 µM (inactive); in the assay with HT-29, 3.78 µM (inactive); with HCC 2998, 10.2 µM (inactive). The GI50 was 10.9 µM (inactive) in the assay on SF-295; 1.89 µM (inactive) in the assay with HL-60; 9.86 µM (inactive) in the assay with SNB-75; 3.62 µM (inactive) with HCT-116; 3.69 µM (inactive) with SF-539.

In the case of `CCC1(COC(NC(=O)c2ccccc2)(C(F)(F)F)C(F)(F)F)COC1`, the GI50 with NCI-H23, in the assay on SK-MEL-5, in the assay on SK-MEL-2, in the assay with UO-31, with TK-10 and in the assay on A498 was > 100 µM (inactive) in each case. For the same compound, the GI50 in the assay on U-251, in the assay with SNB-19, in the assay on HT-29, with HCC 2998, in the assay on HL-60 and in the assay on SNB-75 was > 100 µM (inactive) each time. The GI50 in the assay on HCT-116 and with SF-539 was > 100 µM (inactive) in each case.

For the compound `COc1ccc2c(c1)[n+]([O-])c(/C(C)=N/NC(=O)c1ccccc1O)c(C)[n+]2[O-]`, the GI50 in the assay with NCI-H23, in the assay on SK-MEL-5, in the assay with Malme-3M, in the assay with SK-MEL-2, with UO-31 and with TK-10 was > 100 µM (inactive) in each case. Besides, the GI50 in the assay on U-251, with NCI-H460, with SNB-19, with HT-29, with NCI-H522 and in the assay with HCC 2998 was > 100 µM (inactive) in each case. In addition, the GI50 in the assay with SF-295, with HL-60, with HCT-116, in the assay on SF-539 and with HOP-62 was > 100 µM (inactive) throughout.

For `COc1cc(Nc2cnc3cc(C(F)(F)F)ccc3n2)cc(OC)c1OC`, the GI50 in the assay with NCI-H23, in the assay with Malme-3M, in the assay on SK-MEL-2, in the assay on UO-31, with TK-10 and with U-251 was > 100 µM (inactive) throughout. Besides, the GI50 in the assay on NCI-H460, with SNB-19, in the assay with HT-29, with HCC 2998, in the assay on SF-295 and in the assay with HL-60 was > 100 µM (inactive) throughout. Moreover, the GI50 with SNB-75, in the assay with HCT-116, with SF-539 and with HOP-62 was > 100 µM (inactive) throughout.

In the case of `CCCCOC(=O)NC(=O)c1cn(CCCOC(=O)CCCCCCCCC(=O)OCCCn2cc(C(=O)NC(=O)OCCCC)c(=O)[nH]c2=O)c(=O)[nH]c1=O`, the GI50 in the assay on NCI-H23, with SK-MEL-5, with Malme-3M, in the assay on SK-MEL-2, in the assay with UO-31 and in the assay on TK-10 was > 100 µM (inactive) in each case. In addition, the GI50 in the assay with U-251, in the assay on NCI-H460, with SNB-19, in the assay with HT-29, in the assay on HCC 2998 and with SF-295 was > 100 µM (inactive) throughout. The GI50 in the assay on HL-60, in the assay with HCT-116, in the assay on SF-539 and in the assay with HOP-62 was > 100 µM (inactive) each time.

`O=[N+]([O-])c1ccc(N=P(c2ccccc2)(c2ccccc2)c2ccccc2)n2nnnc12`: the GI50 is > 100 µM (inactive) in the assay on NCI-H23; 67 µM (inactive) in the assay with SK-MEL-5; 50.8 µM (inactive) in the assay on Malme-3M; 33.7 µM (inactive) with SK-MEL-2; 78.7 µM (inactive) in the assay with UO-31; > 100 µM (inactive) with TK-10. The GI50 in the assay with A498 is > 100 µM (inactive); in the assay with U-251, 54.8 µM (inactive); with NCI-H460, 44.6 µM (inactive); with SNB-19 it was 33.4 µM (inactive); in the assay on HT-29 it was > 100 µM (inactive); with NCI-H522 it was 31 µM (inactive). Besides, the GI50 is 29 µM (inactive) in the assay on SF-295; 36.1 µM (inactive) in the assay with HL-60; 21.9 µM (inactive) in the assay on SNB-75; 23 µM (inactive) with SF-539; 25.6 µM (inactive) with HOP-62.

`Cc1ccc(S(=O)(=O)NC(=O)C#CCOC2CCCCO2)cc1` (centres undefined): the GI50 was > 100 µM (inactive) in the assay with NCI-H23; > 100 µM (inactive) with SK-MEL-5; > 100 µM (inactive) in the assay with Malme-3M; 82.8 µM (inactive) in the assay with SK-MEL-2; > 100 µM (inactive) in the assay with UO-31; > 100 µM (inactive) in the assay on TK-10. In addition, the GI50 in the assay with A498, in the assay on U-251, in the assay with NCI-H460, in the assay on SNB-19, in the assay with HT-29 and in the assay on HCC 2998 was > 100 µM (inactive) each time. Also, the GI50 with SF-295, in the assay on HL-60, with SNB-75, in the assay on HCT-116 and in the assay on SF-539 was > 100 µM (inactive) throughout.
